Consider 19 molecules from PubChem BioAssay (NCI).

Test in all cases: DTP human tumour cell line panel, 48 h
In test [1] the test system is ACHN renal.
The subject of test [2] is EKVX NSCLC.
For test [3], the system named is HOP-62 NSCLC.
Test [4] concerns MDA-MB-231 breast.
For test [5], the system named is NCI-H522 lung.
The subject of test [6] is RXF 393 renal.
Test [7] deals with SK-MEL-2 melanoma.
Test [8] deals with SK-MEL-28 melanoma.
For test [9], the system named is TK-10 renal.
The subject of test [10] is UO-31 renal.

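Values below derive from 48-hour exposures of cells grown in 96-well plates, with endpoints linearly interpolated between the two concentrations bracketing the appropriate inhibition level. Abbreviation: GI50, concentration required for 50% inhibition of growth. TGI is the concentration that stops growth completely.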

With `CN1CCN(c2nc3c(c(=O)n(C)c(=O)n3C)n2C)CC1`, the TGI in test [1], in test [2], in test [3], in test [4], in [5] and in test [6] was over 100 µM throughout. Besides, the TGI in test [7], in [8], in test [9] and in [10] was over 100 µM in each case.
Regarding `CCN1CCc2sc3[nH]c(=S)n(C)c(=O)c3c2C1`, the TGI in test [1], in [2], in test [3], in [4], in test [5] and in test [6] was over 100 µM each time. Further, the TGI in test [7], in test [8], in test [9] and in test [10] was over 100 µM in each case.
With `COc1ccc(N=Nc2ccc3oc(=O)c(C(=O)Nc4ccc(OC)cc4)cc3c2)cc1`, the TGI in test [1] is 56.5 µM; in test [2], 97.7 µM; in test [3], 30.3 µM; in test [4] it was 88.1 µM; in test [5], 75.6 µM; in test [6], over 100 µM. Moreover, the TGI in test [7] is 39.5 µM; in test [8], 41.1 µM; in test [9], over 100 µM; in test [10] it was 62.4 µM.
Turning to `O=S(=O)(CC#CCS(=O)(=O)c1ccccc1)c1ccccc1`, the concentration for total growth inhibition (TGI) in [1] worked out at 3.25 µM; in test [2] it was 12.1 µM; in test [3], 20.7 µM; in [4], 26.5 µM; in test [5], 1.63 µM; in [6] it was 3.38 µM. The TGI in test [7] was determined as 19.4 µM; in test [8], 25.7 µM; in [9], 7.61 µM; in test [10], 2.65 µM.
Consider `CN(C)/C=C/c1ccnc2c1C(=O)c1ccccc1C2=O`, for which the TGI was over 50.7 µM in test [1]; 44.3 µM in test [2]; 62.6 µM in [3]; over 89 µM in test [4]; 24.2 µM in [5]; over 100 µM in test [6]. Also, the TGI in test [7] was 18.3 µM; in test [8], 5.95 µM; in [9] it was over 100 µM; in test [10] it was 43.6 µM.
For the molecule `C[C@H]1C(=O)C2=C[C@H]1CCC(=O)[C@]1(C)CCCC(C)(C)[C@H]1C[C@H]2O`, the TGI in [1] was 31.6 µM; in test [2] it was 31.9 µM; in [3], over 100 µM; in test [4], 20.2 µM; in [5], 20.6 µM; in test [6], 23.6 µM. The TGI in [7] was over 100 µM; in [8], over 100 µM; in test [9] it was 28.7 µM; in [10], 75.1 µM.
In the case of `COc1cccc2c(NNc3ccc(Cl)cc3)c3ccc([N+](=O)[O-])cc3nc12`, the total growth inhibition concentration (TGI) was 22.4 µM in test [1]; 33.3 µM in [2]; 24.2 µM in test [3]; 27.5 µM in [4]; 21.1 µM in [5]; 48 µM in test [6]. Also, the TGI is over 100 µM in [7], over 100 µM in test [8], 25.8 µM in [9] and 37.9 µM in test [10].
`COC(=O)[C@H]1ON2O[C@H](OC3CCCC[C@@H]3c3ccccc3)C[C@@H]3CC[C@H]1[C@@]32C` (stereo not given in full): the TGI in test [1], in test [2], in [3], in test [4], in test [5] and in test [6] was over 100 µM in each case. Also, the TGI in test [7], in [8], in test [9] and in [10] was over 100 µM throughout.
With `Cc1ccc(-n2cc(-c3ccc(Cl)cc3)c3c(NNC(=S)NCc4ccccc4)ncnc32)cc1`, the TGI in test [1] was over 100 µM; in [2], 73.5 µM; in test [3] it was 85.4 µM; in [4], 59.5 µM; in [5] it was 13.2 µM; in [6] it was 56.4 µM. Further, the TGI in test [7] was 20.1 µM; in test [8] it was over 100 µM; in test [9] it was 68.2 µM; in test [10], 24.2 µM.
As to `O=C(C(=O)n1ccc2ccccc21)c1c[nH]c2ccccc12`, the TGI in test [1], in test [2], in test [3], in test [4], in [5] and in [6] was over 10 µM in each case. Further, the TGI in [7], in test [8], in [9] and in test [10] was over 10 µM each time.
In the case of `COc1cccc(C(=O)C(O)c2cccc(OC)c2OC)c1OC` (stereo not given), the TGI in test [1], in test [2], in [3], in test [4], in [5] and in test [6] was over 100 µM in each case. Besides, the TGI in [7], in test [8], in [9] and in test [10] was over 100 µM throughout.
With `C[N+]12C=CC=C1C(N1CCCC1)c1sc(-c3ccc(Cl)cc3)cc12` (stereo not given), the TGI in test [1] was over 100 µM; in test [2], 79 µM; in [3], 31.3 µM; in test [4] it was 35.5 µM; in test [5] it was 27 µM; in test [6], 31.9 µM. Further, the TGI in [7] was 21.1 µM; in [8] it was 31.6 µM; in [9] it was 40.7 µM; in [10], over 100 µM.
Consider `Cc1ccc(-c2cn3c(nc4ccccc43)c(C)n2)cc1`, for which the TGI in test [1] is over 100 µM; in test [2], over 100 µM; in test [3], over 100 µM; in test [4], over 100 µM; in test [5], over 100 µM; in test [6], over 64.4 µM. In addition, the TGI in test [7] is over 63.8 µM; in test [8], over 100 µM; in test [9] it was over 100 µM; in test [10], over 30.1 µM.
For the molecule `CCC1(CC)C(=O)N(C(=O)c2ccc(Cl)cc2)N(C(=O)c2ccccc2Cl)C1=O`, the TGI in [1] was over 100 µM; in test [2], 24.9 µM; in test [3], over 100 µM; in test [4], over 100 µM; in test [5] it was 48.1 µM; in test [6], over 100 µM. For the same molecule, the total growth inhibition concentration (TGI) in test [7], in test [8], in test [9] and in test [10] was over 100 µM in each case.
With `CCCCCCc1cc2cc(C(=O)Nc3cccc(C(F)(F)F)c3)c(=N)oc2cc1O`, the TGI in test [1] is over 34.7 µM; in test [2], 11.6 µM; in test [3] it was 5.03 µM; in [4], 7.69 µM; in [5], 2.67 µM; in test [6] it was 2.19 µM. Also, the TGI is 5.68 µM in [7], 27.6 µM in [8], 46.6 µM in test [9] and over 29.2 µM in test [10].
With `Nc1cc(N)c2nc(-c3ccccc3)c(Sc3ccc(F)cc3)nc2c1`, the GI50 in test [1] was 14.2 µM; in test [2], 20.5 µM; in test [3] it was 16.6 µM; in test [4], 17.5 µM; in test [5], over 100 µM; in test [6], 13.3 µM. Also, the GI50 in test [7] is 38.4 µM; in test [8], 23.4 µM; in test [9] it was 17.4 µM; in test [10], 32 µM. The TGI was 27.7 µM in [1]; 41.2 µM in [2]; 34.3 µM in [3]; 38 µM in test [4]; over 100 µM in [5]; 29.3 µM in test [6]. In addition, the total growth inhibition concentration (TGI) was over 100 µM in test [7], 53.4 µM in test [8], 42.6 µM in test [9] and over 100 µM in test [10].
Turning to `CN(C)CCCN1c2ccc3ccccc3c2Sc2cccc(Cl)c21`, the TGI in [1] is 12.6 µM; in test [2], 13.5 µM; in test [3] it was 9.32 µM; in [4] it was 8.07 µM; in test [5], 10.5 µM; in [6], 10.4 µM. Moreover, the TGI in [7] turned out to be 3.75 µM; in [8], 4.3 µM; in test [9] it was 5.67 µM; in [10], 12 µM.
Take `O=C(O)CCCCCNC(=O)CCC(CN(CC(=O)OCc1ccccc1)CC(=O)OCc1ccccc1)N(CC(=O)OCc1ccccc1)CC(=O)OCc1ccccc1` (stereo not given): the TGI in test [1] was 32 µM; in [2], 49 µM; in test [3] it was 41 µM; in test [4] it was 38.6 µM; in [5], 42.1 µM; in test [6], 28.9 µM. Moreover, the TGI in test [7] was determined as 32 µM; in test [8] it was 33.7 µM; in test [9], 29.9 µM; in test [10], 29.3 µM.
On to `CN(C)CCCn1c2c(c3ccncc3c1=O)C(=O)c1ccccc1-2`, for which the 50% growth inhibitory concentration (GI50) is 0.339 µM in test [1]; 7.91 µM in [2]; 0.862 µM in test [3]; 1.77 µM in test [4]; 1.61 µM in test [5]; 1.14 µM in [6]. Further, the GI50 in [7] is 2.18 µM; in test [8], 1.72 µM; in [9], 1.98 µM; in test [10], 0.546 µM. Besides, the TGI in test [1] was determined as 10.4 µM; in test [2] it was 48.3 µM; in test [3] it was 20.6 µM; in [4], 7.7 µM; in test [5], 11.9 µM; in [6], 3.86 µM. In addition, the TGI in test [7] came out at 6.96 µM; in test [8] it was 4.7 µM; in test [9] it was 24.3 µM; in test [10] it was 21 µM.

What is called TGI is the concentration at which net growth stops. As usually defined, the GI50 is the concentration that inhibits growth by half.
